Assay results taken from US11208387B2, “Macrocyclic broad spectrum antibiotics” (Genentech, Inc., priority 2019, dated 2021).
≈ marks a conversion by molar mass, not a printed value. Read-outs that look alike come from different tables or passages of the source.

Experiments:
[1] = test system: isolated liver mitochondria; assay: Mitochondrial oxygen consumption rate (OCR) assay; assay type: biochemical, Sprague-Dawley rats; conditions: isolated rat liver mitochondria, state 3 (S3) respiration, glutamate/malate; Table 3
Outline: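 Liver mitochondria from male Sprague-Dawley rats preincubated with compounds 1 h on ice (1% DMSO, pH 7.4 buffer), then given glutamate/malate with TTFA (plus ADP for state 3) and phosphorescent O2 probe. Oxygen consumption read 30 min at 30 °C. IC50 (50 μg protein, S3) or UC50 (100 μg, S2) derived from AUC.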

[2] = test system: Acinetobacter baumannii ATCC 17978; assay: Serum MIC, broth micro-dilution; assay type: cell-based; conditions: Acinetobacter baumannii, ATCC17978, 50% v/v mouse serum in Mueller Hinton II cation adjusted Broth, 35° C., 22 hours
Outline: (§1)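 Serum-shifted MIC: medium is a 1:1 v/v mix of cation-adjusted MH II broth and mouse serum. 10-point 2-fold dilution series, top 64, 4, 0.5 or 0.13 μg/mL depending on protocol. Inoculum OD600 0.0005 final; 35° C, 22 h.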

[3] = test system: Escherichia coli strain ATCC 25922; assay: Serum MIC, broth micro-dilution; assay type: cell-based; conditions: Escherichia coli, ATCC25922; 50% v/v mouse serum in Mueller Hinton II cation adjusted Broth, 35° C., 22 hours; Table 4; read-out: E. coli 25922 Serum MIC
Outline: as §1

[4] = test system: Klebsiella pneumoniae ATCC 700603; assay: Serum MIC, broth micro-dilution; assay type: cell-based; conditions: Klebsiella pneumoniae, ATCC700603; 50% v/v mouse serum in Mueller Hinton II cation adjusted Broth, 35° C., 22 hours; Table 4; read-out: K pneumoniae 700603 Serum MIC
Outline: as §1

[5] = test system: Pseudomonas aeruginosa PA01; assay: Serum MIC, broth micro-dilution; assay type: cell-based; conditions: Pseudomonas aeruginosa, PA01; 50% v/v mouse serum in Mueller Hinton II cation adjusted Broth, 35° C., 22 hours; Table 4; read-out: P. aeruginosa 01 Serum MIC
Outline: as §1

[6] = Table 4, read-out: A. baumanii 17978 Serum MIC
[7] = Table 5, read-out: Acinetobacter baumanii 17978 Serum MIC

SMILES	IC50 [1] [µM]	MIC [2, 6] [µM]	MIC [2, 7] [µM]	MIC [3] [µM]	MIC [4] [µM]	MIC [5] [µM]
Cc1nc(-c2ccc(C(C)(C)C)cc2O)nc(N)c1C(=O)N[C@@H](CNS(N)(=O)=O)C(=O)N(C)[C@@H]1C(=O)N[C@@H](C)C(=O)N[C@H](C(=O)O)Cc2ccc(OC[C@H](O)CN)c(c2)-c2cc1cc(OC[C@H](O)CN)c2O [Example 44, (8S,11S,14S)-14-[[(2S)-2-[[4-amino-2-(4-tert-butyl-2-hydroxy-phenyl)-6-methyl-pyrimidine-5-carbonyl]amino]-3-(sulfamoylamino)-propanoyl]-methyl-amino]-3,17-bis[(2R)-3-amino-2-hydroxy-propoxy]-18-hydroxy-11-methyl-10,13-dioxo-9,12-diazatricyclo-[13.3.1.12,6]icosa-1(18),2(20),3,5,15(19), 16-hexaene-8-carboxylic acid]	44	8 (≈ 8.19 µg/mL)	8 (≈ 8.19 µg/mL)	0.5 (≈ 0.512 µg/mL)	0.5 (≈ 0.512 µg/mL)	4 (≈ 4.1 µg/mL)
Cc1nc(-c2ccc(C(C)(C)C)cc2)nc(N)c1C(=O)N[C@@H](CNS(N)(=O)=O)C(=O)N(C)[C@@H]1C(=O)N[C@@H](C)C(=O)N[C@H](C(=O)O)Cc2ccc(OC[C@H](O)CN)c(c2)-c2cc1cc(OC[C@@H](O)CN)c2O [Example 50, (8S,11S,14S)-14-[[(2S)-2-[[4-amino-2-(4-tert-butylphenyl)-6-methyl-pyrimidine-5-carbonyl]amino]-3-(sulfamoylamino)-propanoyl]-methyl-amino]-3-[(2R)-3-amino-2-hydroxy-propoxy]-17-[(2S)-3-amino-2-hydroxy-propoxy]-18-hydroxy-11-methyl-10,13-dioxo-9,12-diazatri-cyclo[13.3.1.12,6]icosa-1(19),2(20),3,5,15,17-hexaene-8-carboxylic acid]	> 100	8 (≈ 8.06 µg/mL)	8 (≈ 8.06 µg/mL)	0.75 (≈ 0.756 µg/mL)	0.75 (≈ 0.756 µg/mL)	4 (≈ 4.03 µg/mL)
Cc1nc(-c2ccc(C(C)(C)C)cc2F)nc(N)c1C(=O)N[C@@H](CNS(N)(=O)=O)C(=O)N(C)[C@@H]1C(=O)N[C@@H](C)C(=O)N[C@H](C(=O)O)Cc2ccc(OC[C@H](O)CN)c(c2)-c2cc1cc(OC[C@H](O)CN)c2O [Example 62, (8S,11S,14S)-14-[[(2S)-2-[[4-amino-2-(4-tert-butyl-2-fluoro-phenyl)-6-methyl-pyrimidine-5-carbonyl]-amino]-3-(sulfamoyl-amino)propanoyl]-methyl-amino]-3,17-bis[(2R)-3-amino-2-hydroxy-propoxy]-18-hydroxy-11-methyl-10,13-dioxo-9,12-diazatricyclo-[13.3.1.12,6]icosa-1(18),2(20),3,5,15(19), 16-hexaene-8-carboxylic acid]	> 100	16 (≈ 16.4 µg/mL)	16 (≈ 16.4 µg/mL)	1 (≈ 1.03 µg/mL)	1 (≈ 1.03 µg/mL)	6 (≈ 6.16 µg/mL)
Cc1nc(-c2ccc(C(C)(C)C)cc2)nc(N)c1C(=O)N[C@@H](CNS(N)(=O)=O)C(=O)N(C)[C@@H]1C(=O)N[C@@H](C)C(=O)N[C@H](C(=O)O)Cc2ccc(OC[C@@H](O)CN)c(c2)-c2cc1cc(OC[C@@H](O)CN)c2O [Example 64, (8S,11S,14S)-14-[[(2S)-2-[[4-amino-2-(4-tert-butylphenyl)-6-methyl-pyrimidine-5-carbonyl]amino]-3-(sulfamoylamino)-propanoyl]-methyl-amino]-3,17-bis[(2S)-3-amino-2-hydroxy-propoxy]-18-hydroxy-11-methyl-10,13-dioxo-9,12-diazatri-cyclo[13.3.1.12,6]icosa-1(18),2(20),3,5,15(19), 16-hexaene-8-carboxylic acid]	> 100	8 (≈ 8.06 µg/mL)	8 (≈ 8.06 µg/mL)	0.5 (≈ 0.504 µg/mL)	0.5 (≈ 0.504 µg/mL)	4 (≈ 4.03 µg/mL)
Cc1nc(-c2ccc3c(c2)CCC3(C)C)nc(N)c1C(=O)N[C@@H](CNS(N)(=O)=O)C(=O)N(C)[C@@H]1C(=O)N[C@@H](C)C(=O)N[C@H](C(=O)O)Cc2ccc(OC[C@H](O)CN)c(c2)-c2cc1cc(OC[C@H](O)CN)c2O [Example 66, (8S,11S,14S)-14-[[(2S)-2-[[4-amino-2-(1,1-dimethylindan-5-yl)-6-methyl-pyrimidine-5-carbonyl]-amino]-3-(sulfamoyl-amino)propanoyl]-methyl-amino]-3,17-bis[(2R)-3-amino-2-hydroxy-propoxy]-18-hydroxy-11-methyl-10,13-dioxo-9,12-diazatricyclo-[13.3.1.12,6]icosa-1(18),2(20),3,5,15(19), 16-hexaene-8-carboxylic acid]	69	12 (≈ 12.2 µg/mL)	12 (≈ 12.2 µg/mL)	0.75 (≈ 0.765 µg/mL)	0.75 (≈ 0.765 µg/mL)	6 (≈ 6.12 µg/mL)
C[C@@H]1NC(=O)[C@@H](N(C)C(=O)[C@H](CNS(N)(=O)=O)NC(=O)c2c(N)nc(-c3ccc(C(C)(C)C)cc3)nc2C(F)F)c2cc(OC[C@H](O)CN)c(O)c(c2)-c2cc(ccc2OC[C@H](O)CN)C[C@@H](C(=O)O)NC1=O [Example 69, (8S,11S,14S)-14-[[(2S)-2-[[4-amino-2-(4-tert-butylphenyl)-6-(difluoromethyl)-pyrimidine-5-carbonyl]amino]-3-(sulfamoylamino)-propanoyl]-methyl-amino]-3,17-bis[(2R)-3-amino-2-hydroxy-propoxy]-18-hydroxy-11-methyl-10,13-dioxo-9,12-diazatri-cyclo[13.3.1.12,6]icosa-1(18),2(20),3,5,15(19), 16-hexaene-8-carboxylic acid]	44	4 (≈ 4.18 µg/mL)	4 (≈ 4.18 µg/mL)	0.25 (≈ 0.261 µg/mL)	0.38 (≈ 0.397 µg/mL)	6 (≈ 6.26 µg/mL)
Cc1nc(-c2ccc3c(c2O)CCC3(C)C)nc(N)c1C(=O)N[C@@H](CNS(N)(=O)=O)C(=O)N(C)[C@@H]1C(=O)N[C@@H](C)C(=O)N[C@H](C(=O)O)Cc2ccc(OC[C@H](O)CN)c(c2)-c2cc1cc(OC[C@H](O)CN)c2O [Example 70, (8S,11S,14S)-18-hydroxy-11-methyl-14-[methyl-[(2S)-2-[[4-amino-2-(4-hydroxy-1,1-dimethyl-indan-5-yl)-6-methyl-pyrimidine-5-carbonyl]-amino]-3-(sulfamoyl-amino)propanoyl]-amino]-10,13-dioxo-3,17-bis[(2R)-3-amino-2-hydroxy-propoxy]-9,12-diazatricyclo-[13.3.1.12,6]icosa-1(18),2(20),3,5,15(19), 16-hexaene-8-carboxylic acid]	48	16 (≈ 16.6 µg/mL)	16 (≈ 16.6 µg/mL)	0.5 (≈ 0.518 µg/mL)	1 (≈ 1.04 µg/mL)	4 (≈ 4.14 µg/mL)
Cc1nc(-c2ccc(C(C)(C)C)cc2)nc(CN)c1C(=O)N[C@@H](CNS(N)(=O)=O)C(=O)N(C)[C@@H]1C(=O)N[C@@H](C)C(=O)N[C@H](C(=O)O)Cc2ccc(OC[C@H](O)CN)c(c2)-c2cc1cc(OC[C@H](O)CN)c2O [Example 72, (8S,11S,14S)-3,17-bis[(2R)-3-amino-2-hydroxy-propoxy]-14-[[(2S)-2-[[4-(amino-methyl)-2-(4-tert-butylphenyl)-6-methyl-pyrimidine-5-carbonyl]amino]-3-(sulfamoylamino)-propanoyl]-methyl-amino]-18-hydroxy-11-methyl-10,13-dioxo-9,12-diazatri-cyclo[13.3.1.12,6]icosa-1(18),2(20),3,5,15(19), 16-hexaene-8-carboxylic acid]	> 200	14 (≈ 14.3 µg/mL)	14 (≈ 14.3 µg/mL)	0.5 (≈ 0.511 µg/mL)	0.31 (≈ 0.317 µg/mL)	8 (≈ 8.18 µg/mL)
